Common to all, as to assay: NCI tumour cell line growth inhibition, 48 h
The subject of assay [1] is ACHN renal.
For assay [2], the system named is COLO 205 colon.
Assay [3] has as its system DU-145 prostate.
In assay [4] the test system is HCC-2998 colon.
Assay [5] concerns HOP-92 NSCLC.
The subject of assay [6] is IGROV1 ovarian.
Assay [7] has as its system MCF7 breast.
For assay [8], the system named is MDA-MB-231 breast.
For assay [9], the system named is OVCAR-3 ovarian.
In assay [10] the test system is UO-31 renal.

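How tested: cells in 96-well plates exposed to compound for 48 hours at five concentrations. GI50 marks 50% less growth. TGI: total growth inhibition.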

In the case of `O=C1/C(=C/c2ccccc2Br)COc2ccc(O)c(O)c21`, the GI50 in assay [1] was 1.32 µM; in assay [2] it was 1.96 µM; in [3], 1.49 µM; in [4], 1.83 µM; in assay [5], 2.71 µM; in assay [6], 0.742 µM. Besides, the GI50 is 0.583 µM in [7], 1.42 µM in [8], 0.557 µM in assay [9] and 0.804 µM in assay [10]. Moreover, the TGI in assay [1] was 3.09 µM; in assay [2], 3.95 µM; in assay [3], 3.23 µM; in [4] it was 3.4 µM; in assay [5], 9 µM; in assay [6], 4.29 µM. For the same compound, the TGI came out at 6.02 µM in assay [7], 6.17 µM in [8], 1.83 µM in [9] and 2.07 µM in assay [10].

For the compound `COc1cccc(-c2nc(-c3ccc(NC(=O)c4ccccc4)cc3)[nH]c2-c2ccnc(Br)c2)c1`, the GI50 in [1] was 2.95 µM; in [2], 3.55 µM; in [5], 6.26 µM; in assay [6], 6.96 µM; in [7], 2.4 µM; in assay [8], 3.97 µM. Moreover, the GI50 was 4.48 µM in [9] and 2.93 µM in [10]. The TGI in assay [1], in assay [2], in [5], in assay [6], in [7] and in assay [8] was above 100 µM each time. Also, the TGI in assay [9] and in assay [10] was above 100 µM throughout.

Turning to `N#Cc1ccc(-c2nc3ccc(Cl)cc3[nH]2)cc1`, the TGI in assay [2], in [4], in assay [5], in assay [6], in assay [7] and in assay [8] was above 100 µM in each case. In addition, the TGI in assay [9] and in assay [10] was above 100 µM throughout.

Regarding `NCCCn1c2c(c3cc4c(cc3c1=O)OCO4)C(=O)c1ccccc1-2`, the GI50 in assay [1] is 0.119 µM; in [2] it was 3.61 µM; in assay [3], 0.907 µM; in assay [4] it was 0.237 µM; in assay [5] it was 0.437 µM; in assay [8] it was 1.45 µM. For the same compound, in assay [9], the GI50 is 0.564 µM. Further, the TGI in assay [1] was 1.22 µM; in assay [2], above 100 µM; in [3], 2.63 µM; in assay [4] it was 0.718 µM; in [5], 2.11 µM; in [8], 2.88 µM. The same compound displayed a TGI in assay [9] of 1.27 µM.

As for `NC1=NC(c2ccccc2)CC(c2cc(Cl)cc(Br)c2O)=N1` (stereo not given), the TGI came out at 31.5 µM in assay [1]; 25.6 µM in [2]; 26.4 µM in assay [4]; 38.2 µM in [5]; 30.8 µM in assay [6]; 21.4 µM in [7]. Further, the figures for the TGI in assay [9] and in assay [10] were 30.2 µM and 32.3 µM, respectively.

In the case of `CC(=O)Nc1ccc2oc(=O)c3ccccc3c2c1`, the TGI in assay [1], in assay [2], in [3], in assay [4], in assay [5] and in assay [6] was above 100 µM each time. In addition, the TGI in [7], in assay [9] and in assay [10] was above 100 µM throughout.

For `Cc1ccc2c(N/N=C\c3ccco3)cc(C)nc2n1`, the GI50 in assay [1] was 3.37 µM; in [2] it was 1.88 µM; in assay [3], 6.79 µM; in assay [4], 2.7 µM; in [6] it was 3.41 µM; in assay [7], 3.28 µM. The GI50 is 3.53 µM in assay [8], 2.81 µM in assay [9] and 2 µM in assay [10]. The TGI in assay [1] was determined as 12.4 µM; in [2], 3.75 µM; in [3], 20.1 µM; in assay [4], 7.4 µM; in [6] it was 14.8 µM; in assay [7], 15.5 µM. Besides, the TGI in [8] was found to be 13.5 µM; in assay [9], 7.49 µM; in assay [10] it was 5.24 µM.

Turning to `O=C1CC2C(=O)C1C(C(=O)O)C2C(=O)O` (stereo not given), the TGI in [1], in [2], in [3], in [5], in [6] and in assay [7] was above 100 µM in each case. The TGI in assay [8], in [9] and in assay [10] was above 100 µM in each case.

Turning to `N#Cc1nn(C2OC(COC(=O)c3ccccc3)C(OC(=O)c3ccccc3)C2OC(=O)c2ccccc2)c2nc[nH]c(=O)c12` (stereo not given), the TGI in assay [1], in [2], in [3], in assay [4], in [6] and in assay [7] was above 100 µM each time. In addition, the TGI in assay [8], in assay [9] and in assay [10] was above 100 µM throughout.

As for `Cc1cccc2c1NC(=O)[C@@]21[C@H](C(=O)c2ccccc2)[C@]2(C(=O)Nc3ccccc32)[C@H]2CCCN21`, the GI50 in [1] is 19.6 µM; in assay [2], 46.2 µM; in assay [3], above 100 µM; in assay [4], 49.5 µM; in assay [5], 24.7 µM; in [7], 14.3 µM. For the same compound, the figures for the GI50 in [8], in assay [9] and in assay [10] were 21.3 µM, 15.5 µM and 17.6 µM, respectively. Moreover, the TGI in [1] was 73 µM; in assay [2] it was above 100 µM; in [3] it was above 100 µM; in assay [4], above 100 µM; in assay [5] it was 59.1 µM; in assay [7], above 100 µM. For the same compound, the TGI in assay [8], in assay [9] and in [10] was above 100 µM each time.

Take `COc1ccc(-c2nc(N)c3ncn(C4OC(CO)C(O)C4O)c3n2)cc1` (stereo not given): the TGI in assay [1], in assay [2], in [3], in assay [5], in assay [6] and in assay [7] was above 100 µM in each case. Besides, the TGI in assay [8] and in assay [9] was above 100 µM throughout.

`NCC1OC(n2cnc3c(=O)[nH]c(N)nc32)C(O)C1O` (stereo not given): the TGI in assay [1], in assay [2], in [3], in [5], in assay [6] and in [7] was above 100 µM in each case. Further, the TGI in assay [8], in assay [9] and in assay [10] was above 100 µM throughout.

`COc1ccc(C(=O)C(Br)C(Br)C(=O)O)cc1` (stereo not given): the TGI is above 100 µM in assay [1]; 46.8 µM in assay [2]; above 100 µM in assay [3]; above 100 µM in assay [5]; above 100 µM in assay [6]; above 100 µM in assay [7]. Moreover, the TGI in assay [8] is above 100 µM; in assay [9] it was 57.4 µM.

As to `COc1cc([C@@H]2c3cc4c(cc3[C@H](OC(C)=O)[C@H]3COC(=O)[C@H]23)OCO4)cc(OC)c1OC`, the GI50 is 0.044 µM in [1]; 0.0288 µM in assay [2]; 0.0412 µM in [3]; 0.0401 µM in [4]; 0.0254 µM in [5]; 0.0571 µM in assay [6]. Moreover, the values for the GI50 in [8], in [9] and in assay [10] were 0.0416 µM, 0.034 µM and 0.0808 µM, respectively. Further, the TGI in [1] was above 100 µM; in assay [2], 0.0785 µM; in [3], above 100 µM; in assay [4], above 100 µM; in assay [5], 4.94 µM; in [6] it was above 100 µM. The TGI in assay [8], in assay [9] and in assay [10] was above 100 µM throughout.

On to `CC([C@H]1CCC2C3CCC4CC5(CC[C@]4(C)C3CC[C@@]21C)c1ccccc1C(=O)N5C)N(C)C` (stereo not given in full), for which the TGI in [1], in [2], in assay [4], in assay [5], in assay [6] and in assay [9] was above 100 µM each time. In addition, in assay [10], the TGI was determined as 50.2 µM.

Regarding `NNC(=O)CCC(=O)Nc1ccc(Cl)cc1Cl`, the TGI in [1], in assay [2], in assay [4], in [5], in assay [6] and in assay [9] was above 100 µM in each case. The compound further came in with a TGI in assay [10] above 100 µM.

For `CN(C)Cc1cccc(CN(C)C)[c]1[Sn]([Br])([c]1ccccc1)[c]1ccccc1`, the GI50 is 19.1 µM in [1]; 4.37 µM in [2]; 20.2 µM in [3]; 2.15 µM in assay [5]; 0.436 µM in assay [6]; 10.5 µM in [7]. Moreover, the GI50 was 15.9 µM in [8], 11.3 µM in assay [9] and 13.1 µM in assay [10]. The TGI in assay [1] amounted to 40.4 µM; in assay [2], 17.9 µM; in [3] it was 49.5 µM; in [5], 9.74 µM; in [6], 4.52 µM; in assay [7], 24.5 µM. Also, the values for the TGI in [8], in [9] and in [10] were 38.3 µM, 24.3 µM and 26.8 µM, respectively.

For `N#C/C(=C/C=C/c1ccccc1)S(=O)c1ccccc1` (stereo not given), the GI50 in [1] is 0.2 µM; in assay [2] it was 0.482 µM; in assay [3] it was 0.316 µM; in assay [4], 0.342 µM; in [5], 0.319 µM; in assay [6], 0.467 µM. Also, the values for the GI50 in assay [8], in assay [9] and in assay [10] were 0.371 µM, 0.307 µM and 0.4 µM, respectively. Further, the TGI in [1] was found to be 0.462 µM; in assay [2], 2.07 µM; in [3], 1.2 µM; in assay [4], 1.18 µM; in [5], 1.03 µM; in assay [6], 3 µM. The TGI in [8] was determined as 1.56 µM; in assay [9] it was 1.13 µM; in [10] it was 3.08 µM.

As for `O=C1C(Cl)=C(Nc2cccc(O)c2)C(=O)N1c1cccc(Cl)c1`, the GI50 in assay [1] is 85.4 µM; in assay [2], 56.5 µM; in [3] it was 69.5 µM; in assay [6], 18.3 µM; in [7], 36 µM; in [8], 35.8 µM. The GI50 is 22.3 µM in assay [9] and 75.8 µM in assay [10]. Besides, the TGI in [1] is above 100 µM; in assay [2], above 100 µM; in assay [3] it was above 100 µM; in assay [6] it was 51.4 µM; in [7] it was above 100 µM; in assay [8], above 100 µM. Besides, the TGI in assay [9] was 64.1 µM; in assay [10], above 100 µM.

`COC1OC(CBr)C(OC(c2ccccc2)(c2ccccc2)c2ccccc2)C(OC(c2ccccc2)(c2ccccc2)c2ccccc2)C1OC(c1ccccc1)(c1ccccc1)c1ccccc1` (stereo not given): the TGI in assay [1] is above 100 µM; in assay [2] it was above 100 µM; in assay [3], above 100 µM; in [4] it was above 100 µM; in assay [5], 52.4 µM; in [6], above 100 µM. Further, the TGI in [7] is above 100 µM; in assay [9], 28.6 µM; in assay [10], 36.8 µM.

For the compound `COc1ccc(-c2csc(NC(=O)N3CCN(c4cc5c(cc4F)c(=O)c(C(=O)O)cn5C4CC4)CC3)n2)cc1`, the GI50 in assay [1] is 2.66 µM; in assay [3], 1.72 µM; in [4], 3.83 µM; in assay [5], 1.6 µM; in assay [6], 2.36 µM; in assay [7] it was 2.6 µM. In addition, the GI50 in assay [8] was 2.71 µM; in [9], 0.89 µM; in assay [10] it was 1.62 µM. The TGI was above 100 µM in assay [1]; above 100 µM in assay [3]; above 100 µM in assay [4]; 6.56 µM in assay [5]; above 100 µM in assay [6]; above 100 µM in [7]. Also, the values for the TGI in [8], in assay [9] and in assay [10] were above 100 µM, 17.9 µM and above 100 µM, respectively.
